According to ChEMBL document CHEMBL1201862, “PubChem BioAssay data set” (2004):
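Values below derive from 48-hour exposures of cells grown in 96-well plates, with endpoints linearly interpolated between the two concentrations bracketing the appropriate inhibition level. GI50 marks 50% less growth.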 Activity calls are given as the source filed them. No stated cut-off is given here; in the data, active = GI50 up to about 1.1 µM and inactive = higher.

Columns and labels:
Assay in all cases: NCI tumour cell line growth inhibition, 48 h
HCT-116 = test system: HCT-116
HOP-62 = test system: HOP-62
A498 = test system: A498
EKVX = test system: EKVX
HCT-15 = test system: HCT-15
OVCAR-5 = test system: OVCAR-5
RXF 393 = test system: RXF 393
T47D = test system: T47D
HCC 2998 = test system: HCC 2998
SF-295 = test system: SF-295
NCI-H226 = test system: NCI-H226
MDA-MB-435 = test system: MDA-MB-435
HOP-92 = test system: HOP-92
IGROV-1 = test system: IGROV-1
Malme-3M = test system: Malme-3M
SK-MEL-28 = test system: SK-MEL-28
A549 = test system: A549
ACHN = test system: ACHN
RPMI-8226 = test system: RPMI-8226
NCI-H23 = test system: NCI-H23
MCF7 = test system: MCF7
Hs-578T = test system: Hs-578T
NCI/ADR-RES = test system: NCI/ADR-RES
CAKI-1 = test system: CAKI-1
SK-MEL-2 = test system: SK-MEL-2
UO-31 = test system: UO-31
SNB-19 = test system: SNB-19
SW-620 = test system: SW-620
MOLT-4 = test system: MOLT-4
SNB-75 = test system: SNB-75
U-251 = test system: U-251
BT-549 = test system: BT-549
SF-539 = test system: SF-539
TK-10 = test system: TK-10
HL-60 = test system: HL-60
M14 = test system: M14
DU-145 = test system: DU-145
SR = test system: SR
CCRF-CEM = test system: CCRF-CEM
SN12C = test system: SN12C
OVCAR-3 = test system: OVCAR-3
MDA-N = test system: MDA-N
MDA-MB-231 = test system: MDA-MB-231
SK-OV-3 = test system: SK-OV-3
SF-268 = test system: SF-268
UACC-62 = test system: UACC-62
786-0 = test system: 786-0
OVCAR-4 = test system: OVCAR-4
KM12 = test system: KM12
UACC-257 = test system: UACC-257
LOX IMVI = test system: LOX IMVI
NCI-H522 = test system: NCI-H522
SK-MEL-5 = test system: SK-MEL-5
COLO 205 = test system: COLO 205
PC-3 = test system: PC-3
NCI-H460 = test system: NCI-H460
HT-29 = test system: HT-29
OVCAR-8 = test system: OVCAR-8
K562 = test system: K562

## COC(=O)C(=O)Nc1cc2c3c(c1)Oc1cccc4c1C3(C)c1c(cccc1O2)O4
HCT-116
  GI50: > 75.2 µM (inactive)
HOP-62
  GI50: > 100 µM (inactive)
A498
  GI50: 39.7 µM (inactive)
EKVX
  GI50: > 82.6 µM (inactive)
HCT-15
  GI50: 97.5 µM
OVCAR-5
  GI50: > 55.2 µM (inactive)
RXF 393
  GI50: 18.7 µM (inactive)
T47D
  GI50: > 61.7 µM (inactive)
HCC 2998
  GI50: > 59.2 µM (inactive)
SF-295
  GI50: > 100 µM (inactive)
NCI-H226
  GI50: 4.75 µM (inactive)
MDA-MB-435
  GI50: > 100 µM (inactive)
HOP-92
  GI50: 72.6 µM (inactive)
IGROV-1
  GI50: 55.8 µM (inactive)
Malme-3M
  GI50: > 65.9 µM (inactive)
SK-MEL-28
  GI50: > 100 µM (inactive)
A549
  GI50: > 100 µM (inactive)
ACHN
  GI50: > 82 µM (inactive)
RPMI-8226
  GI50: > 44.8 µM (inactive)
NCI-H23
  GI50: > 100 µM (inactive)
MCF7
  GI50: > 100 µM (inactive)
Hs-578T
  GI50: > 83.4 µM (inactive)
NCI/ADR-RES
  GI50: 6.56 µM (inactive)
CAKI-1
  GI50: > 72.4 µM (inactive)
SK-MEL-2
  GI50: > 87.7 µM (inactive)
UO-31
  GI50: 98.6 µM (inactive)
SNB-19
  GI50: > 100 µM (inactive)
SW-620
  GI50: > 100 µM (inactive)
MOLT-4
  GI50: 39.2 µM (inactive)
SNB-75
  GI50: > 100 µM (inactive)
U-251
  GI50: > 100 µM (inactive)
BT-549
  GI50: > 100 µM (inactive)
SF-539
  GI50: 33 µM (inactive)
TK-10
  GI50: 99.5 µM (inactive)
HL-60
  GI50: 0.105 µM (active)
M14
  GI50: > 100 µM (inactive)
DU-145
  GI50: > 44.7 µM (inactive)
SR
  GI50: 2.93 µM (inactive)
CCRF-CEM
  GI50: 1.26 µM (inactive)
SN12C
  GI50: > 69.5 µM (inactive)
OVCAR-3
  GI50: 34.2 µM (inactive)
MDA-N
  GI50: > 100 µM (inactive)
MDA-MB-231
  GI50: > 100 µM (inactive)
SK-OV-3
  GI50: > 100 µM (inactive)
SF-268
  GI50: > 100 µM (inactive)
UACC-62
  GI50: > 100 µM (inactive)
786-0
  GI50: 30.9 µM (inactive)
OVCAR-4
  GI50: > 100 µM (inactive)
KM12
  GI50: > 100 µM (inactive)
UACC-257
  GI50: > 100 µM (inactive)
LOX IMVI
  GI50: 71.3 µM (inactive)
NCI-H522
  GI50: > 86.3 µM (inactive)
SK-MEL-5
  GI50: > 100 µM (inactive)
COLO 205
  GI50: > 31.6 µM (inactive)
PC-3
  GI50: 97.1 µM (inactive)
NCI-H460
  GI50: > 100 µM (inactive)

## C/C=C(/C)C(=O)OC1CC(C)[C@H]2CC(=O)C(C)=C2CC1C(C)(C)OC(C)=O (stereo not given in full)
HCT-116
  GI50: 19.6 µM (inactive)
HOP-62
  GI50: 28.9 µM (inactive)
A498
  GI50: 20.2 µM (inactive)
HT-29
  GI50: 35.5 µM (inactive)
EKVX
  GI50: 39.1 µM (inactive)
HCT-15
  GI50: 19.7 µM
OVCAR-5
  GI50: > 100 µM (inactive)
RXF 393
  GI50: 22.5 µM (inactive)
T47D
  GI50: 15.4 µM (inactive)
HCC 2998
  GI50: 22.6 µM (inactive)
SF-295
  GI50: 24.7 µM (inactive)
NCI-H226
  GI50: 37.4 µM (inactive)
MDA-MB-435
  GI50: 28 µM (inactive)
HOP-92
  GI50: 19.6 µM (inactive)
IGROV-1
  GI50: 53.8 µM (inactive)
Malme-3M
  GI50: 19.3 µM (inactive)
SK-MEL-28
  GI50: 31 µM (inactive)
A549
  GI50: 30.3 µM (inactive)
ACHN
  GI50: 35.6 µM (inactive)
RPMI-8226
  GI50: 22.9 µM (inactive)
NCI-H23
  GI50: 74.8 µM (inactive)
MCF7
  GI50: 40.6 µM (inactive)
Hs-578T
  GI50: 35.4 µM (inactive)
NCI/ADR-RES
  GI50: 22.8 µM (inactive)
CAKI-1
  GI50: 37.1 µM (inactive)
OVCAR-8
  GI50: 30.8 µM (inactive)
SK-MEL-2
  GI50: 3.95 µM (inactive)
UO-31
  GI50: 23.5 µM (inactive)
SNB-19
  GI50: 34.4 µM (inactive)
SW-620
  GI50: 43.7 µM (inactive)
MOLT-4
  GI50: 26.2 µM (inactive)
SNB-75
  GI50: 44.4 µM (inactive)
U-251
  GI50: 38.1 µM (inactive)
BT-549
  GI50: 31 µM (inactive)
SF-539
  GI50: 20.7 µM (inactive)
TK-10
  GI50: 28.8 µM (inactive)
HL-60
  GI50: 21.4 µM (inactive)
M14
  GI50: 29.2 µM (inactive)
DU-145
  GI50: 81.1 µM (inactive)
SR
  GI50: 23 µM (inactive)
CCRF-CEM
  GI50: 25.6 µM (inactive)
SN12C
  GI50: 42 µM (inactive)
OVCAR-3
  GI50: 20.3 µM (inactive)
MDA-N
  GI50: 34.2 µM (inactive)
MDA-MB-231
  GI50: 31.7 µM (inactive)
SF-268
  GI50: 58.2 µM (inactive)
UACC-62
  GI50: 21.8 µM (inactive)
K562
  GI50: 32.6 µM (inactive)
786-0
  GI50: 43.8 µM (inactive)
OVCAR-4
  GI50: 22.2 µM (inactive)
KM12
  GI50: 25.9 µM (inactive)
UACC-257
  GI50: 20.9 µM (inactive)
LOX IMVI
  GI50: 17.9 µM (inactive)
NCI-H522
  GI50: 19.5 µM (inactive)
SK-MEL-5
  GI50: 15.9 µM (inactive)
COLO 205
  GI50: 17.9 µM (inactive)
PC-3
  GI50: 31.3 µM (inactive)
NCI-H460
  GI50: 19.3 µM (inactive)

## O=C(CCc1cccc(O)c1)NCCCNC(=O)CCc1cccc(O)c1
HCT-116
  GI50: > 100 µM (inactive)
HOP-62
  GI50: > 100 µM (inactive)
A498
  GI50: > 100 µM (inactive)
HT-29
  GI50: > 100 µM (inactive)
EKVX
  GI50: > 100 µM (inactive)
HCT-15
  GI50: > 100 µM
OVCAR-5
  GI50: > 100 µM (inactive)
RXF 393
  GI50: > 100 µM (inactive)
T47D
  GI50: > 100 µM (inactive)
HCC 2998
  GI50: > 100 µM (inactive)
SF-295
  GI50: > 100 µM (inactive)
MDA-MB-435
  GI50: > 100 µM (inactive)
HOP-92
  GI50: 50.9 µM (inactive)
IGROV-1
  GI50: > 100 µM (inactive)
Malme-3M
  GI50: > 100 µM (inactive)
SK-MEL-28
  GI50: > 100 µM (inactive)
A549
  GI50: > 100 µM (inactive)
ACHN
  GI50: > 100 µM (inactive)
RPMI-8226
  GI50: > 100 µM (inactive)
NCI-H23
  GI50: > 100 µM (inactive)
MCF7
  GI50: > 100 µM (inactive)
Hs-578T
  GI50: > 100 µM (inactive)
NCI/ADR-RES
  GI50: > 100 µM (inactive)
CAKI-1
  GI50: > 100 µM (inactive)
OVCAR-8
  GI50: > 100 µM (inactive)
SK-MEL-2
  GI50: > 100 µM (inactive)
UO-31
  GI50: > 100 µM (inactive)
SNB-19
  GI50: > 100 µM (inactive)
SW-620
  GI50: > 100 µM (inactive)
MOLT-4
  GI50: > 100 µM (inactive)
U-251
  GI50: > 100 µM (inactive)
BT-549
  GI50: > 100 µM (inactive)
SF-539
  GI50: > 100 µM (inactive)
HL-60
  GI50: < 0.01 µM (active)
M14
  GI50: > 100 µM (inactive)
DU-145
  GI50: > 100 µM (inactive)
SR
  GI50: > 100 µM (inactive)
CCRF-CEM
  GI50: > 100 µM (inactive)
SN12C
  GI50: > 100 µM (inactive)
OVCAR-3
  GI50: > 100 µM (inactive)
MDA-N
  GI50: > 100 µM (inactive)
MDA-MB-231
  GI50: > 100 µM (inactive)
SK-OV-3
  GI50: > 100 µM (inactive)
SF-268
  GI50: > 100 µM (inactive)
UACC-62
  GI50: > 100 µM (inactive)
K562
  GI50: > 100 µM (inactive)
786-0
  GI50: > 100 µM (inactive)
OVCAR-4
  GI50: > 100 µM (inactive)
KM12
  GI50: > 100 µM (inactive)
UACC-257
  GI50: > 100 µM (inactive)
LOX IMVI
  GI50: > 100 µM (inactive)
NCI-H522
  GI50: > 100 µM (inactive)
SK-MEL-5
  GI50: > 100 µM (inactive)
COLO 205
  GI50: > 100 µM (inactive)
PC-3
  GI50: > 100 µM (inactive)
NCI-H460
  GI50: > 100 µM (inactive)
